# “Also recorded” adds a separate entry of the source. Square brackets hold non-standard residues; d marks the D form. Ends that are not written are not given here. pS = N[C@@H](COP(=O)(O)O)C(=O)O
# Key:
# [1] = test system: fast axonal transport; test: Vesicle motility assays in isolated axoplasm; type: biochemical, squid Loligo pealii; conditions: for effect on both antero and retrograde axonal transport rates: 5 μM perfused into extruded axoplasm; for effect on both modes of axonal transport: 1 μM and 5 μM psychosine perfused
# Description: Axoplasm was extruded from giant axons of the squid Loligo pealii (Wood Hole Marine Biological Laboratory) as described previously. Szebenyi et al., Neuron 40:41-52 (2003) and Morfini et al., Nat. Neurosci. 9:907-916 (2006). Sphingolipids were diluted into X/2 buffer (175 mM potassium aspartate, 65 mM taurine, 35 mM betaine, 25 mM glycine, 10 mM HEPES, 6.5 mM MgCl2, 5 mM EGTA, 1.5 mM CaCl2 and 0.5 mM glucose, pH 7.2) supplemented with 2-5 mM ATP and 20 μl was added to perfusion chambers. Preparations were analyzed on a Zeiss Axiomat with a 100×, 1.3 n.a. objective, and DIC optics. […]. Organelle velocities were measured with a Photonics Microscopy C2117 video manipulator (Hamamatsu).
# To test whether psychosine exerts a role in neurodegeneration by affecting axonal transport, an experiment was performed using axoplasms isolated from giant squid axons, an approach used to examine the effects on antero and retrograde transport rates of a variety of molecules. Morfini et al., Neuromolecular Med. 2:89-99 (2002).
# Whether psychosine is a pathogenic effector capable of triggering axonal defects in the Twitcher mouse was assessed. To test psychosine effect on FAT, a model of vesicular transport based on the squid Loligo Pelai was employed. This approach has been extensively characterized to examine the effects of different pathogenic proteins. Morfini et al., Neuromolecular. Med. 2:89-99 (2002). Candidate molecules were perfused in a microchamber containing the axoplasm preparations and the average motility of MBO was measured over a period of time. This model has played a fundamental role in the discovery of kinesin-1S (Brady, Nature 317:73-75 (1985)) and the regulatory mechanisms of FAT (Morfini et al., Neuromolecular. Med. 2:89-99 (2002); Morfini et al., Embo J. 23:2235-2245 (2004); and Ratner et al., J. Neurosci. 18:7717-7726 (1998)) as well as the pathogenic mechanism of various proteins and neurotoxins (Morfini et al., Proc. Natl. Acad. Sci. USA 104:2442-2447 (2007); Morfini et al., Nat. Neurosci. 9:907-916 (2006); and Pigino et al., Proc. Natl. Acad. Sci. USA 106:5907-5912 (2009)). Furthermore, antero and retrograde modes of transport in squid axoplasm are identical to those of intact axons (Lasek and Brady, Nature 316:645-647 (1985)) and all regulatory mechanisms discovered in the squid axoplasm are identical to the mammalian neuron.
# Pure preparations of extruded axoplasm isolated from the squid were perfused with different concentrations of psychosine (or related controls) and the speed of MBO was recorded over time.
# [2] = test system: primary cortical neurons; test: Primary cortical neurons incubated with psychosine and control sphingolipids (neurites, MTT assay); conditions: for effect on number of neurites: embryonic primary cortical neurons, psychosine 0.1, 1 and 10 μM
# Description: Cell cultures of cortical neurons were prepared as previously described. […] E16 pregnant females were sacrificed, the brains of the litter were collected, and the cortex was isolated. The brain was chopped, treated with 0.25% trypsin and then passed through a fire polished pipette. The cells were then plated in DMEM (Mediatech) supplemented with 10% fetal bovine serum (FBS) and, after 2 hours, the medium was changed to Neurobasal medium supplemented with B27. For cell survival, the MTT assay (Chemicon) was performed as indicated by the supplier. Briefly, 5000 cells/well were plated in a 96 well plate, and the stimuli were administered for 24 hours. At the end of the incubation time, the MTT reagent was added and, after 4 hours, the reaction was stopped and the absorbance was read at 570 nm. […] Psychosine, D-Sphingosine, and C6-Ceramide were purchased from Sigma and resuspended in ethanol to the desired concentration.
# To test the hypothesis that the presence of psychosine was detrimental to the survival of these neurons, the effect of psychosine treatment on embryonic primary cortical neurons was tested. […] The cytotoxicity of psychosine was determined with the MTT assay, which directly measures mitochondrial activity (FIG. 20L).
# [3] = calcium-sensitive dye, Invitrogen; cited from earlier work
# [4] = test system: Twitcher-YFPax mice; test: Flecainide treatment of Twitcher-YFPax mice: twitching and axonopathic figures by YFP confocal microscopy; type: in vivo, mouse
# Excerpt: Bechtold et al., Brain 128:18-28 (2005). […] FIG. 23.
# To examine whether protection of axons accompanied the flecainide-mediated amelioration of twitching, spinal cord tissue was collected at P30, and longitudinal sections of the ventral white matter were observed by confocal microscopy for axonal integrity, using the YFP expression as reporter.
# Spinal cord and sciatic nerves were removed from treated and non-treated mice, providing tissue for regular confocal microscopy. Paraformaldehyde-fixed longitudinal 50-μm thick cryosections of spinal cord were used. Whole mount preparations of sciatic nerves were used for confocal analysis. Nerve samples were thoroughly Z-imaged for YEP excitation on a Zeiss Meta-confocal microscope. The number of fragmented or discontinued axons per area in samples from Twi-YFPax mice (treated and non-treated) were counted and the mean values compared to those from WT-YFPax controls. Plotting these numbers against postnatal days allowed a determination of when axonal damage starts and the extent of the effect of each neuroprotective treatment at any given time. Axonal integrity was determined by visualizing continuous YFP fluorescence along a single axon over several hundreds of microns, while visualization of axonal fragments, varicosities, and/or swellings were considered a sign of axonal damage.
# [5] = test system: EAE, spinal cord injury, and hypoxic injury; conditions: cited from earlier work; for prevention of axonal loss: EAE, spinal cord injury, and hypoxic injury
# [6] = test system: NCX1; test: Immunoblot of NCX1 in spinal cord extracts of flecainide-treated Twitcher mice; type: in vivo, mouse
# Description: Tissues were isolated and either frozen for long term storage or directly homogenized in lysis buffer (1 mM PMSF, 2 mM Sodium Orthovanadate, 1 mM NaF, 20 mM Tris HCl pH 7.4, 1% Triton X100, 150 mM NaCl, 5 mM MgCl2, 300 nM Okadaic acid). Samples were then briefly sonicated on ice and spun down at 5000 rpm for 5 min to remove the debris. The amount of protein of the supernatant was then quantified with the Bradford assay (Biorad) and equal amount of proteins were loaded on a 4-12% Bis-Tris gel (Invitrogen). After protein determination, samples were diluted to the same concentration and 10-20 μg of total protein electrophoresed on 4-12% Tris-glycine Nupage (Invitrogen) gels at 80 V in MOPS-SDS running buffer. After at 80 mV the gels were transferred for 2 hour at 120 PVDF on a PVDF membrane (Biorad). The membrane was blocked in 5% milk, 1% BSA, 0.05% Tween 20 in Tris Glycine buffer (blocking solution), then probed with primary antibodies overnight at 4° C. and with the secondary horse radish peroxidase conjugated antibodies for 1 hour at room temperature. […] The membrane was washed for at least one hour after the primary and secondary antibody incubations and developed in the Enhanced Luminescence kit (Thermo Scientific). After exposure, the bands were quantified with the software imageJ and the genes of interest were normalized to the relative loading control.
# [7] = test system: psychosine-mediated neurotoxicity; test: Psychosine-mediated neurotoxicity with GSK3β inhibitor L803; conditions: no experimental details given
# [8] = test system: PP1; test: PP1 enzyme activity assay in cortical neurons incubated with psychosine; type: cell-based, mouse
# Description: Samples were processed for quantitation of PP1 with the Molecular Probes RediPlate™ 96 EnzChek® Serine/Threonine Phosphatase Assay Kit (Molecular Probe), as described by the manufacturer. Samples were homogenized in buffer (50 mM Tris-HCl pH 7.0, containing 0.1 mM CaCl2, 125 μg/ml BSA, 0.05% Tween 20) using a IKA Ultra-Turrax T8 homogenizer. An equal amount of protein was loaded in each well of the 96-well plate and fluorescence was read at an excitation of 370 nm and an emission of 460 nm.
# [9] = test system: PKC; conditions: cited from earlier work
# [10] = perfusion with control D-Sphingosine
compound,measurement,setting,value
sphingomyelin,effect on anterograde mode of fast axonal transport,[1]; 5 μM perfused,inhibited the anterograde mode of fast axonal transport only
same,effect on retrograde mode of fast axonal transport,[1]; 5 μM perfused,did not show any effect on the retrograde mode of transport
"CCCCCCCCCCCCC/C=C/[C@@H](O)[C@H](CO)NC(=O)CCCCC [C6 ceramide, C6-Ceramide]",effect on number of neurites,[2],comparable
fluo-4,Kd,[3],345 nM
C=C1[C@@H](O)[C@@H]2O[C@]3(CC[C@H](/C=C/[C@@H](C)[C@@H]4CC(C)=C[C@@]5(O[C@H](C[C@@](C)(O)C(=O)O)CC[C@H]5O)O4)O3)CC[C@H]2O[C@@H]1[C@@H](O)C[C@H](C)[C@H]1O[C@@]2(CCCCO2)CC[C@H]1C [okadaic acid],prevention of psychosine-induced inhibition of fast axonal transport,[1]; 200 nM okadaic acid co-perfused with 5 μM psychosine,prevented much of the blockage of axonal transport; also recorded: prevented FAT inhibition induced by psychosine
O=C(NCC1CCCCN1)c1cc(OCC(F)(F)F)ccc1OCC(F)(F)F (centres unmarked) [flecainide],onset of twitching (percentage of mice twitching),"[4]; 30 mg/kg body weight/day from P5 or P9 until P30, at 15, 20, 25 and 30 days of age",delayed onset of twitching
same,protection of axons in the spinal cord,[4]; daily subcutaneous 30 mg/kg/day starting from P2,significantly protected axons in the spinal cord; also recorded: even stronger protective effect
same,reduction of number of structural pathologies (axonopathic figures per area) to motor axons,"[4]; early treatment from P5, 30 mg/kg/day, spinal cord at P30",about 50%
same,frequency of axonopathic figures in the ventral spinal cord,"[4]; late treatment from P9, 30 mg/kg/day, spinal cord at P30",not significantly different from that in vehicle-treated animals
same,reduction of axonal degeneration,"[5]; 30 mg/kg/day, models of demyelinating EAE",sufficient to reduce axonal degeneration
same,prevention of axonal loss,[5],successfully prevented major axonal loss
same,"sodium channel firing, sodium influx and axon protection",[5]; models of acute and chronic demyelination,"successful in reducing excessive firing of sodium channels, decreasing sodium influx, and protecting axons"
same,NCX1 expression in spinal cord,[6]; early flecainide treatment (P5),reduced NCX1 expression at early (P20) and late (P30) ages; also recorded: reduced the expression of NCX1
same,NCX1 expression in spinal cord,[6]; late flecainide treatment (P9),Reduction of NXC1 was not detected; also recorded: no differences in NCX1 expression
Sulfatides,effect on both antero and retrograde axonal transport rates,[1],inhibited both anterograde and retrograde modes of fast axonal transport
O=C1NC(=O)C(c2ccccc2)(c2ccccc2)N1 [phenytoin],prevention of axonal loss,[5],successfully prevented major axonal loss
chondroitin sulfate,effect on both antero and retrograde axonal transport rates,[1],no detectable effect
C[S+]([O-])c1ccc(-c2nc(-c3ccncc3)c(-c3ccc(F)cc3)[nH]2)cc1 (centres unmarked) [SB203580],prevention of GM1-mediated inhibition of anterograde fast axonal transport,[1],prevented GM1-mediated inhibition of anterograde fast axonal transport
same,prevention of sphingomyelin inhibition of anterograde fast axonal transport,[1],prevented
CCCCCCCCCCCCC/C=C/[C@@H](O)[C@@H](N)CO [D-Sphingosine],effect on number of neurites,[2],did not exert any effect
same,effect on speed of anterograde or retrograde transport,[1]; control lipid perfused,did not affect the speed of anterograde or retrograde transport
same,"transport rate, anterograde FAT",[1]; [10],1.5-2 mm/sec
same,"transport rate, retrograde transport",[1]; [10],1-1.4 mm/sec
KEAPPAPPQ[pS]P [L803],effect on psychosine-mediated neurotoxicity,[7],decreased psychosine-mediated neurotoxicity
"CCCCCCCCCCCCC/C=C/[C@@H](O)[C@@H](N)CO[C@@H]1O[C@H](CO)[C@H](O)[C@H](O)[C@H]1O [psychosine, galactosylsphingosine]",effect on number of neurites,[2],decrease in the number of neurites
same,"cytotoxicity, MTT assay","[2]; primary cortical neurons, 1 μM, 24 hours",toxic even at low concentrations
same,PP1 activity,[8]; acutely purified embryonic cortical neurons incubated with psychosine,PP1 activity was induced; also recorded: dose-dependent increase in PP1 activity
same,PP1 activity,"[8]; cortical neurons, incubation with psychosine for 1 hour",PP1 activity increased
same,effect on both modes of axonal transport,[1],strong inhibition of both modes of axonal transport
same,effect on both modes of axonal transport,[1]; listed as Psychosine,strongly inhibited both modes of FAT
same,effect on both antero and retrograde axonal transport rates,[1],rapid reduction of both antero and retrograde axonal transport rates; also recorded: strong inhibitory effect on both antero and retrograde transport
same,inhibition of kinases,[9],known to inhibit kinases such as PKC

# Source: patent publication US20120156180A1, “COMPOSITIONS AND METHODS FOR THE TREATMENT OF KRABBE AND OTHER NEURODEGENERATIVE DISEASES” (The Board of Trustees of the University of Illinois, priority 2009, published 2012)
